Values joined by “and” are separate entries in the source; they are usually repeats but may differ in a detail not shown here. Equal entries are not always repeated.
Tests used:
SU-DHL-4 cell line = test: CD40L-induced expression of cell-surface adhesion molecules, SU-DHL-4 cells; assay type: cell-based, human
Experimental: (§1) To further elucidate the mechanism by which the H-CHOP combination results in unexpectedly potent anti-tumour efficacy in vivo, further experiments were performed. The ability of B-cells cells to aggregate and interact with their microenvironment may affect the efficacy of therapeutics. The effects of HCD122 on the expression of adhesion molecules in the RL and SU-DHL-4 cell lines was therefore examined.

cell-surface CD40 = cell-surface CD40 (Homo sapiens, UniProt P25942); test: Flow cytometric assays of CD40-ligand binding
human CD40 [1] = molecular target: T1, human CD40 (Homo sapiens, UniProt P25942); test: Biacore binding affinity assay
Description: As used herein “anti-CD40 antibody” encompasses any antibody that specifically recognizes the CD40 antigen. […] Biacore analysis is known in the art and details are provided in the “BIAapplications handbook”.
(§2) The antibody is able to kill CD40-expressing target cells by antibody dependent cellular cytotoxicity (ADCC). The binding affinity of HCD122 for human CD40 is 5×10^−10 M, as determined by the Biacore™ assay.
Target sequence in this assay (P25942 21-277): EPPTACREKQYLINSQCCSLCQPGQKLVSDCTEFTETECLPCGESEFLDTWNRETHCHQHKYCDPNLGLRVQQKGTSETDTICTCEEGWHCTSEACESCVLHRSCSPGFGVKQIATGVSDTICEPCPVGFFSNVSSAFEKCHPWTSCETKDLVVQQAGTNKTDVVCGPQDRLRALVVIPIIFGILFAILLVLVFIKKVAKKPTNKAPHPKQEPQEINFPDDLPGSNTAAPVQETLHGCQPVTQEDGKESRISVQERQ

SU-DHL-4 cells [2] = test: CD40L-induced resistance to CHOP cytotoxicity (CellTiter-Glo); assay type: cell-based, human; details: antibody 10 μg/ml; CD40L 1 μg/ml; 3 days; percentage of viable cells
Experimental: Experiments were performed to elucidate the mechanism by which the H-CHOP combination provides unexpectedly potent anti-tumour efficacy in vivo. SU-DHL-4 cells were cultured in the presence of (i) negative control huIgG1 antibody, (ii) HCD122, (iii) huIgG1 and CD40L or (iv) HCD122 and CD40L. SU-DHL-4 cells were seeded at 30,000 cells/well. The antibodies were all used at 10 μg/ml. Recombinant human soluble CD40L was used at 1 μg/ml with ligand enhancer at 2 μg/ml. All cells were treated with cytoxan at 1 mg/ml, prednisone at 15 μg/ml, doxrubicin at 2.5 ng/ml and vincristin at 1 pg/ml. Cells were cultured for 3 days and the percentage of viable cells determined using CellTiter-Glo.

[3] = tested on: CD40-expressing target cells; test: Antibody dependent cellular cytotoxicity (ADCC); assay type: cell-based
Description: as §2

RL cells = test: CD40L-induced NF-kB activation, p65 phosphorylation Western blot, RL cells; assay type: cell-based, human
Experimental: (§3) RL and SU-DHL-4 cells were stimulated with CD40L for 0, 10, 30, and 90 minutes and Western blots were performed (FIG. 3). […] The phosphorylation persisted in these cell lines for at least 90 minutes. […] Down-regulating NF-kB activation in a cell may sensitize the cell to CHOP cytotoxicity (Chuang et al. (2002) Biochemical Pharmacology 63:1709-1716; Cheng et al. (2000) Oncogene 19:4936-4940).

RL cell line = test: CD40L-induced expression of cell-surface adhesion molecules, RL cells; assay type: cell-based, human
Experimental: as §1

SU-DHL-4 cells [4] = test: CD40L-induced NF-kB activation, p65 phosphorylation Western blot, SU-DHL-4 cells; assay type: cell-based, human
Experimental: as §3

[5] = tested on: B cells from normal human subjects; test: In vitro proliferation of B cells from normal human subjects; assay type: cell-based
Experimental: B cells (4×10^4 per well) are cultured in 200 μl IMDM supplemented with 10% fetal calf serum in flat bottom 96-well microtiter plates. B cells are stimulated by addition of immobilized anti-(IgM) antibodies (Immunobeads; 5 μg/ml; BioRad, Richmond, Calif.). Where desired, 100 U/ml recombinant IL-2 is added. Varying concentrations of test monoclonal antibodies (mAbs) are added at the onset of the microcultures and proliferation is assessed at day 3 by measurement of the incorporation of (3H)-thymidine after 18 hour pulsing.
as §2

[6] = tested on: RL diffuse large B-cell lymphoma (DLBCL) xenograft; test: Anti-tumor activity in RL DLBCL xenograft model; assay type: in vivo; details: alone or with CHOP regimen; for Tumor Growth Inhibition (TGI) on Day 25: vs control huIgG
Experimental: The anti-tumor activity of HCD122 was tested in RL DLBCL xenograft models in combination with CHOP in CB17/SCID mice. 10×10^6 RL cells were subcutaneously implanted with equal volume of Matrigel™ in the animals' midline thoracic vertebral region in a 200 μl volume. The antibody administration was initiated when the mean tumor volume was 150-200 mm^3 in size (noted as day 1 in FIG. 1). […] All monoclonal antibodies were administered on a once-a-week schedule, and the length of treatment was 4 weeks. The CHOP regimen was administered at these doses and schedule: prednisone, 0.2 mg/kg p.o. days 1-5; cytoxan, 40 mg/kg, i.v., day 1; doxorubicin 3.3 mg/kg, i.v., day 1; vincristine, 0.5 mg/kg, i.v., day 1. Group size was n=12. For tumor volume measurements, length then width were measured with a digital caliper. The measurements were recorded twice a week once the tumors became visible. Tumor volumes and doubling times were calculated based on the formula, Volume=L×W^2/2. The animals' weights were recorded and evaluated as a per group average.

SU-DHL-4 cells [7] = test: CD40L-induced aggregation of SU-DHL-4 cells by microscopy; assay type: cell-based, human
soluble CD40 [8] = molecular target: soluble CD40 (Homo sapiens, UniProt P25942); test: ELISA-type binding assays
soluble CD40 [9] = molecular target: soluble CD40 (UniProt P25942 21-193, limits assumed); test: ELISA-type assays
human CD40 [10] = molecular target: T1, human CD40; test: Biacore
[11] = CD40L in the presence of HCD122

Sequence of cell-surface CD40 (P25942 21-277): as above
Sequence of soluble CD40 (Homo sapiens, UniProt P25942) (P25942 21-193 limits assumed): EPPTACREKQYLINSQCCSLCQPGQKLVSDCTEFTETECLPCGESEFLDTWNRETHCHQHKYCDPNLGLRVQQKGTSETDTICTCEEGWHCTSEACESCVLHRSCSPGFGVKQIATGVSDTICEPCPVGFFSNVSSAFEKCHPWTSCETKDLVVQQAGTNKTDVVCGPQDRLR
Sequence of soluble CD40 (UniProt P25942 21-193, limits assumed) (P25942 21-193 limits assumed): as above

## HCD122: human IgG1 anti-CD40 monoclonal antibody, produced by hybridoma deposited with ATCC as PTA-5543
SU-DHL-4 cell line
  CD40L-induced expression of CD54, CD86 and CD95: inhibit
cell-surface CD40
  Binding of CD40-ligand to cell-surface CD40: prevents the binding
  Displacement of pre-bound CD40-ligand: displaces the pre-bound CD40-ligand
Human CD40 [1]
  Kd: 500 pM
SU-DHL-4 cells [2]
  CD40L-induced resistance to CHOP cytotoxicity: resistance can be overcome
[3]
  Killing of CD40-expressing target cells by ADCC: able to kill
RL cells
  NF-kB activation induced by CD40L: completely blocked
RL cells; [11]
  Phosphorylation of p65 on CD40L stimulation: greatly inhibited
RL cell line
  CD40L-induced expression of CD54, CD86 and CD95: inhibit
SU-DHL-4 cells [4]
  NF-kB activation induced by CD40L: completely blocked
SU-DHL-4 cells [4]; [11]
  Phosphorylation of p65 on CD40L stimulation: greatly inhibited
[5]
  Effects on proliferation of B cells from normal human subjects: acts as antagonist anti-CD40 antibody
  Induction of proliferation of human lymphocytes from normal subjects: does not induce strong proliferation
[6]; antibody 0.1 mg/kg i.p. once a week for 4 weeks
  Tumor Growth Inhibition (TGI) on Day 25: 28.65%
[6]; antibody 0.1 mg/kg i.p. once a week
  Tumor-growth delay (time to reach tumor size of 500 mm^3): 1.5 days
[6]; antibody 1 mg/kg i.p. once a week for 4 weeks
  Tumor Growth Inhibition (TGI) on Day 25: 71% and 71.15%
[6]; antibody 1 mg/kg i.p. once a week
  Tumor-growth delay (time to reach tumor size of 500 mm^3): 6 days
SU-DHL-4 cells [7]
  CD40L-induced aggregation of SU-DHL-4 cells: inhibited
Soluble CD40 [8]
  Binding to soluble CD40: binds soluble CD40

B1: monoclonal antibody HCD122 (antibody, human IgG1, kappa, V domains shown)
VH: QVQLVESGGGVVQPGRSLRLSCAASGFTFSSYGMHWVRQAPGKGLEWVAVISYEESNRYHADSVKGRFTISRDNSKITLYLQMNSLRTEDTAVYYCARDGGIAAPGPDYWGQGTLVTVSS
VL: DIVMTQSPLSLTVTPGEPASISCRSSQSLLYSNGYNYLDWYLQKPGQSPQVLISLGSNRASGVPDRFSGSGSGTDFTLKISRVEAEDVGVYYCMQARQTPFTFGPGTKVDIRR
notes: Fully human IgG1 kappa antibody from XenoMouse; hybridoma ATCC PTA-5543; also called CHIR-12.12; anti-CD40 antibody
Soluble CD40 [9]
  binding result: binds
Human CD40 [10]
  Kd: 500 pM

Source: patent publication US20110002934A1, “USES OF ANTI-CD40 ANTIBODIES” (Novartis AG, priority 2007, published 2011)
